Measurements: patent US8084649B2, “Herbicides” (Syngenta Crop Protection, inc., priority 2007, dated 2011)

How the values were obtained:
Assay type in all cases: in vivo
[1] = test system: Alopecurus myosuroides (ALOMY); assay: Pre-emergence herbicidal activity, glasshouse pot test; details: Alopecurus myosuroides, 480 h, rate 500 g/ha, evaluated after 20 days, read-out: Pre-emergence activity, ALOMY (100=total damage to plant; 0=no damage to plant)
How it was run: (§1)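 Visual damage score 0–100 (100 = plant totally killed), taken 20 days after treatment. Spray was applied to pots of sterilised standard soil one day post-sowing, using an aqueous solution of compound in acetone and a surfactant/solvent blend (Emulsogen EL, NMP, DPGME, X-77).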

[2] = test system: Avena fatua (AVEFA); assay: as above; details: Avena fatua, 480 h, rate 500 g/ha, evaluated after 20 days, read-out: Pre-emergence activity, AVEFA (100=total damage to plant; 0=no damage to plant)
How it was run: as §1

[3] = test system: Digitaria sanguinalis (DIGSA); assay: as above; details: Digitaria sanguinalis, 480 h, rate 500 g/ha, evaluated after 20 days, read-out: Pre-emergence activity, DIGSA (100=total damage to plant; 0=no damage to plant)
How it was run: as §1

[4] = test system: Echinochloa crus-galli (ECHCG); assay: as above; details: Echinochloa crus-galli, 480 h, rate 500 g/ha, evaluated after 20 days, read-out: Pre-emergence activity, ECHCG (100=total damage to plant; 0=no damage to plant)
How it was run: as §1

[5] = test system: Lolium perenne (LOLPE); assay: as above; details: Lolium perenne, 480 h, rate 500 g/ha, evaluated after 20 days, read-out: Pre-emergence activity, LOLPE (100=total damage to plant; 0=no damage to plant)
How it was run: as §1

[6] = test system: Setaria faberi (SETFA); assay: as above; details: Setaria faberi, 480 h, rate 500 g/ha, evaluated after 20 days, read-out: Pre-emergence activity, SETFA (100=total damage to plant; 0=no damage to plant)
How it was run: as §1

[7] = test system: Alopecurus myosuroides (ALOMY); assay: Post-emergence herbicidal activity, glasshouse pot test; details: Alopecurus myosuroides, rate 500 g/ha, evaluated after 14 or 15 days, read-out: Post-emergence activity, ALOMY (100=total damage to plant; 0=no damage to plant)
How it was run: (§2)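 Test species were grown in sterilised soil for 10 days, sprayed post-emergence with the aqueous formulated compound, and kept in a greenhouse under optimum conditions. Herbicidal effect was assessed after 14 or 15 days as percent damage, where 0 means no effect.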

[8] = test system: Avena fatua (AVEFA); assay: as above; details: Avena fatua, rate 500 g/ha, evaluated after 14 or 15 days, read-out: Post-emergence activity, AVEFA (100=total damage to plant; 0=no damage to plant)
How it was run: as §2

[9] = test system: Digitaria sanguinalis (DIGSA); assay: as above; details: Digitaria sanguinalis, rate 500 g/ha, evaluated after 14 or 15 days, read-out: Post-emergence activity, DIGSA (100=total damage to plant; 0=no damage to plant)
How it was run: as §2

[10] = test system: Echinochloa crus-galli (ECHCG); assay: as above; details: Echinochloa crus-galli, rate 500 g/ha, evaluated after 14 or 15 days, read-out: Post-emergence activity, ECHCG (100=total damage to plant; 0=no damage to plant)
How it was run: as §2

[11] = test system: Lolium perenne (LOLPE); assay: as above; details: Lolium perenne, rate 500 g/ha, evaluated after 14 or 15 days, read-out: Post-emergence activity, LOLPE (100=total damage to plant; 0=no damage to plant)
How it was run: as §2

[12] = test system: Setaria faberi (SETFA); assay: as above; details: Setaria faberi, rate 500 g/ha, evaluated after 14 or 15 days, read-out: Post-emergence activity, SETFA (100=total damage to plant; 0=no damage to plant)
How it was run: as §2

Structure (SMILES) | pest or weed control at 500 g/ha [1] [%] | pest or weed control at 500 g/ha [2] [%] | pest or weed control at 500 g/ha [3] [%] | pest or weed control at 500 g/ha [4] [%] | pest or weed control at 500 g/ha [5] [%] | pest or weed control at 500 g/ha [6] [%] | pest or weed control at 500 g/ha [7] [%] | pest or weed control at 500 g/ha [8] [%] | pest or weed control at 500 g/ha [9] [%] | pest or weed control at 500 g/ha [10] [%] | pest or weed control at 500 g/ha [11] [%] | pest or weed control at 500 g/ha [12] [%]
CCSC(C)CC1CC(=O)C(c2c(C)cc(C)cc2CC)=C(O)C1 (stereo not drawn) [Compound T1] | 60 | 30 | 70 | 100 | 70 | 70 | 70 | 70 | 90 | 90 | 70 | 80
CCc1cc(CC)c(C2=C(O)CC3(CCOCC3)CC2=O)c(CC)c1 [Compound T2] | 80 | 70 | 100 | 100 | 100 | 90 | 80 | 80 | 100 | 100 | 80 | 80
Cc1ccc(-c2ccc(Cl)cc2)cc1C1=C(O)CC2(CCOCC2)CC1=O [Compound T3] | 40 | 50 | 100 | 100 | 60 | 100 | 80 | 80 | 100 | 100 | 80 | 100
Cc1cc(C)c(C2=C(O)CC3(CCS(=O)(=O)CC3)CC2=O)c(C)c1 [Compound T5] | 70 | 10 | 70 | 40 | 60 | 30 | 70 | 20 | 70 | 60 | 70 | 70
Cc1cc(C)c(C2=C(O)CC3(CCSCC3)CC2=O)c(C)c1 [Compound T6] | 20 | 30 | 10 | 10 | 0 | 10 | 20 | 10 | 90 | 80 | 10 | 80
CCSC(C)CC1CC(=O)C(c2c(CC)cc(C)cc2CC)=C(O)C1 (stereo not drawn) [Compound T7, 2-(2,6-diethyl-4-methylphenyl)-5-[2-(ethylthio)propyl]cyclohexane-1,3-dione] | 100 | 100 | 100 | 100 | 100 | 100 | 100 | 90 | 90 | 90 | 100 | 100
CCc1cc(C)cc(C)c1C1=C(O)CC(CC(C)SC)CC1=O (stereo not drawn) [Compound T10] | 100 | 70 | 100 | 100 | 100 | 100 | 100 | 100 | 90 | 90 | 100 | 90
